For experiment [1], the target named is Hydrilla PDS Arg^304 → Threonine (Hydrilla verticillata, UniProt Q66PY0, R304T). Nature of the experiment: Cross resistance to bleaching herbicides, in vitro PDS inhibition, non-His-tagged (Table 2). Type of experiment: biochemical. The conditions noted are these: Threonine at 304; construct in frame with LacZalpha-ccdB, non-His-tagged; read-out: I50. The protocol:
(§1) The expression constructs in Table 2 were derived from an original clone of the susceptible PDS gene from Hydrilla and then the Arg^304 was mutated to the listed amino acid. Expression was under the control of the lac promoter but in frame with the initiation codon of the LacZalpha-ccdB gene in the pCR4-TOPO vector (Invitrogen Inc., CA, Cat. #K4575-01).
(§2) All mutagenesis was performed, unless stated otherwise, using the TOPO-vector containing the wildtype (H4) PDS-sequence, which was extracted from an overnight culture with the Qiagen Plasmid Prep Kit as described above. The amount of the extracted plasmid was diluted to 10 ng/μl and used as template in a mutagenesis-procedure using the QuikChange Site-directed Mutagenesis Kit (Stratagene, Calif., #200518). The design of the mutagenesis-primers was conducted according to the manufacturers protocol to enable the specific change of Arg^304-codon to code for the desired amino acid. Primers (purchased from MWG-Biotech) and their introduced amino acid change are listed below with the changed codon underlined:
(§3) The reactions were performed according to the manufacturers protocol. Reactions were set up in MicroAmp-tubes on ice with 38 μl ddH2O, 5 μl 10× reaction buffer, 2 μl plasmid (10 ng/μl), 1.25 μl forward-mutagenesis primer (100 ng/μl), 1.25 μl of reverse mutagenesis primer (100 ng/μl), 1 μl dNTP-mix and 1 μl PfuTurboDNA polymerase (2.5 U/μl). The reactions were placed in a PE 9700 thermal cycler and heated to 95° C. for 30 sec followed by 12 rounds at 95° C. for 30 sec, 55° C. for 1 min and 68° C. for 12 min. The PCR was followed by a DpnI-digestion and transformation in XL1-Blue supercompetent cells as described in the manual. 4-6 resulting colonies were grown overnight in LB-medium with kanamycin and plasmid DNA was isolated as described above. The plasmid was used as template for sequencing with M13 and internal PDS-primers as described above on a LiCOR-system. Sequences were assembled and analyzed using Seqman. Introduced mutations were identified and plasmids carrying the desired mutation(s) were transferred into competent TOP10-cells, using the transformation protocol from the TOPO TA Cloning Kit. Resulting colonies were grown overnight in Wu-broth with kanamycin, aliquoted and stored at −80° C. until further use. 1 ml of Wu-cultures was used to start 1-L LB-cultures with kanamycin as described before, to express active PDS-enzyme for testing as described.
(§4) Phytoene desaturase activity and its inhibition by herbicides was determined using an in vitro system using components derived from the in vivo production of phytoene and phytoene desaturase proteins. All mutations described in Examples 3 and 4 were tested. […] The clones were used for the heterologous expression of Hydrilla-PDS-enzyme. In particular, bacterial cultures were grown from single colonies overnight in Wu-broth (6.27 g/L K2HPO4, 1.8 g/L KH2PO4, 0.5 g/L Na-citrate, 0.9 g/L (NH4)2SO4, 10 g/L tryptone, 5 g/L yeast extract, 10 g/L NaCl, 44 ml/L glycerol, 0.1 mM MgSO4, pH 7.2) with kanamycin. 1-mL was aliquoted in centrifuge tube and stored at −80° C. For expression, 1 L LB-medium with kanamycin was inoculated with 1-mL Wu-culture and grown for 24 h at 37° C. to stationary phase with shaking at 200 rpm. The cells were collected by centrifugation at 2000×g. All of the following steps were done at 4° C. unless otherwise noted. Active soluble PDS enzyme was extracted by lysing the transformed E. coli cells using a French Press at 20,000 psi in assay buffer consisting of 100 mM Tris-HCl, pH 7.2, 10 mM magnesium-chloride, 0.1 mM NADP, 0.1 mM FAD, 10 mM cysteine, 5 mM DTT, 1 mM aminocaproic acid, and 1 μg/ml leupeptin. The soluble fraction containing PDS activity was obtained by centrifugation for 10 min at 1200×g. After 24 h they were centrifuged down and used in PDS enzyme activity assays as described below.

Experiment [2] has as its system Hydrilla PDS Arg^304 → Threonine. Described as above. Type of experiment: biochemical, Hydrilla verticillata. Conditions: Threonine at 304 relative to Arginine; Table 2. The method, then:
as §1, §2, §3, §4

The target in experiment [3] is hydrilla PDS Arg^304 → Serine (Hydrilla verticillata, UniProt Q66PY0, R304S). Described as above. It counts as biochemical. Conditions: Serine at 304; construct in frame with LacZalpha-ccdB, non-His-tagged; read-out: I50. The method, then:
as §1, §2, §3, §4

For experiment [4], the system named is Hydrilla PDS Arg^304 → Glycine. Nature of the experiment: Fluridone enzyme inhibition assay, non-His-tagged PDS (Table 1). It counts as biochemical, Hydrilla verticillata. The conditions noted are these: relative to Arginine. The method, then:
(§5) The expression constructs in Table 1 were derived from an original clone of the susceptible PDS gene from Hydrilla and then the Arg^304 was mutated to the listed amino acid. Expression was under the control of the lac promoter […] with the initiation codon of the LacZalpha-ccdB gene in the pCR4-TOPO vector (Invitrogen Inc., CA, Cat. #K4575-01).
as §2, §3, §4

The subject of experiment [5] is Hydrilla PDS Arg^304 → Glutamine. Described as above. Conditions: relative to Arginine. Type of experiment: biochemical, Hydrilla verticillata. The protocol:
as §5, §2, §3, §4

In experiment [6] the test system is Hydrilla PDS Arg^304 → Glutamic acid. The experiment is described as above. It counts as biochemical, Hydrilla verticillata. Conditions: relative to Arginine. The protocol: as §5, §2, §3, §4
The subject of experiment [7] is Hydrilla PDS Arg^304 → Aspartic acid. The experiment is described as above. Conditions: relative to Arginine. Type of experiment: biochemical, Hydrilla verticillata. The protocol:
as §5, §2, §3, §4

Experiment [8] has as its system Hydrilla PDS Arg^304 → Alanine. The description is as above. Type of experiment: biochemical, Hydrilla verticillata. Conditions: relative to Arginine. The method, then:
as §5, §2, §3, §4

Experiment [9] deals with Hydrilla PDS Arg^304 → Isoleucine. The description is as above. Type of experiment: biochemical, Hydrilla verticillata. Conditions: relative to Arginine. The protocol: as §5, §2, §3, §4
Experiment [10] deals with Hydrilla PDS Arg^304 → Phenyalanine. Described as above. It counts as biochemical, Hydrilla verticillata. Conditions: relative to Arginine. The protocol: as §5, §2, §3, §4
Experiment [11] concerns Hydrilla PDS Arg^304 → Tyrosine. The description is as above. It counts as biochemical, Hydrilla verticillata. Conditions: relative to Arginine. The method, then: as §5, §2, §3, §4
The test system of experiment [12] is Hydrilla PDS Arg^304 → Asparagine. Described as above. Type of experiment: biochemical, Hydrilla verticillata. The conditions noted are these: relative to Arginine. The method, then:
as §5, §2, §3, §4

Experiment [13] has as its system Hydrilla PDS Arg^304 → Methionine. Described as above. Type of experiment: biochemical, Hydrilla verticillata. The conditions noted are these: relative to Arginine. The method, then:
as §5, §2, §3, §4

Experiment [14] deals with Hydrilla PDS Arg^304 → Lysine. Described as above. Type of experiment: biochemical, Hydrilla verticillata. The conditions noted are these: relative to Arginine. The method, then: as §5, §2, §3, §4
Experiment [15] has as its system Hydrilla PDS Arg^304 → Valine. The experiment is described as above. Type of experiment: biochemical, Hydrilla verticillata. Conditions: relative to Arginine. The protocol: as §5, §2, §3, §4
In experiment [16] the test system is Hydrilla PDS Arg^304 → Threonine. Described as above. It counts as biochemical, Hydrilla verticillata. Conditions: relative to Arginine. The protocol: as §5, §2, §3, §4

Chain of Hydrilla PDS Arg^304 → Threonine (Hydrilla verticillata, UniProt Q66PY0, R304T) (Q66PY0 1-580 R304T): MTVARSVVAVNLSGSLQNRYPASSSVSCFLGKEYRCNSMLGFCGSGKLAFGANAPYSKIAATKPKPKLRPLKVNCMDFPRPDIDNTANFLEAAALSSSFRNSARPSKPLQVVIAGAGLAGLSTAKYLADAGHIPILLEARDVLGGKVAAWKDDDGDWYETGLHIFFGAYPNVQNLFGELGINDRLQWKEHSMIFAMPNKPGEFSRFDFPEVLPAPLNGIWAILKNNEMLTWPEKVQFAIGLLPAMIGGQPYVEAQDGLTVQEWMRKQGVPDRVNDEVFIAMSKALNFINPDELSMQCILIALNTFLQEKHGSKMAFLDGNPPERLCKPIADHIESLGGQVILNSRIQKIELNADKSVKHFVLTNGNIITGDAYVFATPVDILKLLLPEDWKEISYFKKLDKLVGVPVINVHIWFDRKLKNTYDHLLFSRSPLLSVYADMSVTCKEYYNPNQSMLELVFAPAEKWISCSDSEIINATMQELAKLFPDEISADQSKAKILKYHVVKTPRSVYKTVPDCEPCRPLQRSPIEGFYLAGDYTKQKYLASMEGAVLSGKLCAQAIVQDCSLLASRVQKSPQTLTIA
Chain of hydrilla PDS Arg^304 → Serine (Q66PY0 1-580 R304S): as the sequence (Q66PY0 1-580 R304T) above, with T304S counted along it

Regarding `CCC(Oc1ccc(F)c(C(F)(F)F)c1)C(=O)NCc1ccccc1` (stereo not shown) [Beflubutamid], the IC50 in experiment [1] was 1.2 µM; in experiment [3], 2.6 µM. Also, in experiment [2], the R/S is recorded as 0.3.

For the molecule `O=C(Nc1ccc(F)cc1F)c1cccnc1Oc1cccc(C(F)(F)F)c1` [Diflufenican], the IC50 came to 1 µM in experiment [1] and 1.1 µM in experiment [3]. The same molecule registered a R/S in [2] of 0.2.

Take `O=C1C(Cl)C(CCl)CN1c1cccc(C(F)(F)F)c1` (stereo not shown) [Fluorochloridone]: the figures for the IC50 in experiment [1] and in [3] were 52 µM and 23 µM, respectively. For the same molecule, the R/S in experiment [2] is given as 4.3.

As to `CNC1=C(c2cccc(C(F)(F)F)c2)C(=O)C(c2ccccc2)O1` (stereo not shown) [Flurtamone], the IC50 in [1] turned out to be 8.1 µM; in [3], 5.9 µM. In experiment [2], this molecule had a R/S of 2.9.

Turning to `CNc1cnn(-c2cccc(C(F)(F)F)c2)c(=O)c1Cl` [Norflurazon], the IC50 amounted to 161 µM in experiment [1] and 54.9 µM in experiment [3]. Further, the R/S in experiment [2] is 52.0.

In the case of `O=C(Nc1ccc(F)cc1)c1cccc(Oc2cccc(C(F)(F)F)c2)n1` [Piconilafen, Picolinafen], in [1], the IC50 was determined as 2.7 µM. Besides, in experiment [2], the R/S worked out at 0.5.

As to Fluridone, the R/S amounted to 10.0 in experiment [2]; 3.2 in experiment [4]; 19 in [5]; 1.5 in experiment [6]; 10 in experiment [7]; 22.5 in experiment [8]. In addition, the R/S in experiment [9] stood at 10; in experiment [10] it was 2.6; in experiment [11], 4; in experiment [12], 3.2; in [13], 11.5; in experiment [14] it was 5. Also, the R/S in experiment [15] was 11; in experiment [16], 40.

The record behind these values is US20110098180A1, “Herbicide-Resistant Plants, And Polynucleotides And Methods For Providing Same” (United States Department of Agriculture, priority 2002, published 2011).
